Source: US20230348371A1, “SULFONYLUREA DERIVATIVE AND MEDICAL USES THEREOF” (SHANGHAI SENHUI MEDICINE CO., LTD., priority 2020, published 2023)
Read-outs that look alike come from different tables or passages of the source.

Assays:
SUR1 receptor = SUR1 receptor (Homo sapiens (Human), UniProt Q09428); assay: Binding activity for SUR1 receptor ([3H]-Glibenclamide displacement, SUR1 membrane); details: SUR1 membrane protein, [3H]-Glibenclamide 2 nM, 37° C. 1 h
Procedure: The plate was incubated at 4° C. for 1 h. • f) The […]-96 GF/C and […]-96 GF/B plates were washed twice with Universal Harvester, each time with 50 mL of washing solution. • g) The SUR1 receptor reaction system was transferred to a […]-96 GF/B plate with Universal Harvester, and 900 μL of washing solution was added to each well to wash the GF/B plate 4 times. The washed […]-96 GF/B plate was dried in an oven at 55° C. for 10 min. • h) 40 μL of ULTIMA GOLD scintillation solution was added to each well, and the plate was read using Microbeta.

[1] = In vivo pharmacokinetics after single intravenous injection in SD rats (plasma); details: rat, single IV 5 mg/kg; for Vd: iv, 5 mg/kg; for MRT last: read-out: MRT(0-t); for MRT inf: read-out: MRT(0-∞)
Procedure: 1. […] The mixture was stirred or sonicated until completely dissolved to obtain a clear solution at a concentration of 1 mg/mL for administration by intravenous injection.
2. An appropriate amount of compound 3 or compound 6 was accurately weighed, and an appropriate volume of 5% DMSO+20% PG+20% PEG400+55% PBS (pH 8.0) was added thereto. The mixture was stirred or sonicated until completely dissolved to obtain a clear solution at a concentration of 1 mg/mL for administration by intravenous administration.
SPF grade SD rats, source: animals were transferred from the laboratory animal reserve bank (999M-017), Shanghai Sippe-Bk Lab Animal Co., Ltd.
3 rats/time point was set, blood samples were collected from the first 3 rats in each group, and cerebrospinal fluid and brain tissue were collected from the last 3 rats in each group. Blood sample: before administration and 5 min, 0.25 h, 0.5 h, 1 h, 1.5 h, 2 h, 4 h, 6 h, 8 h, 12 h and 24 h after administration. Tissue sample: cerebrospinal fluid and brain tissue were collected 10 min after administration.
Blood sample: blood was collected via jugular vein or other suitable means, and about 0.20 mL of blood was collected from each rat and added into an EDTA-K2 anticoagulation tube, which was then placed on ice after collection and centrifuged within 2 h for plasma separation (centrifugation conditions: 6800 g, 6 min, 2-8° C.). The collected plasma samples were stored in a refrigerator at −70° C. before analysis, and the residual plasma samples after analysis were still stored in the refrigerator at −70° C. for subsequent processing according to the requirements of the sponsor.
The concentration of each test compound in the plasma and tissue samples was determined. The accuracy of quality control samples was evaluated while analyzing the samples, and more than 66% of the quality control samples were required to have an accuracy between 80% and 120%.
The pharmacokinetic parameters such as AUC(0-t), T½, Cmax, Tmax and MRT were calculated from plasma concentration data at different time points using WinNonlin.
When plasma drug concentration-time curves were plotted, BLQ was recorded as 0. When the pharmacokinetic parameters were calculated, the concentration before administration was calculated as 0; BLQ before Cmax (including “No peak”) was calculated as 0; and BLQ that occurs after Cmax (including “No peak”) was excluded from the calculation.

[2] = Sprague-Dawley (SD), read-out: Vss
[3] = Sprague-Dawley (SD), read-out: Vz

Sequence of SUR1 receptor (Q09428 whole entry): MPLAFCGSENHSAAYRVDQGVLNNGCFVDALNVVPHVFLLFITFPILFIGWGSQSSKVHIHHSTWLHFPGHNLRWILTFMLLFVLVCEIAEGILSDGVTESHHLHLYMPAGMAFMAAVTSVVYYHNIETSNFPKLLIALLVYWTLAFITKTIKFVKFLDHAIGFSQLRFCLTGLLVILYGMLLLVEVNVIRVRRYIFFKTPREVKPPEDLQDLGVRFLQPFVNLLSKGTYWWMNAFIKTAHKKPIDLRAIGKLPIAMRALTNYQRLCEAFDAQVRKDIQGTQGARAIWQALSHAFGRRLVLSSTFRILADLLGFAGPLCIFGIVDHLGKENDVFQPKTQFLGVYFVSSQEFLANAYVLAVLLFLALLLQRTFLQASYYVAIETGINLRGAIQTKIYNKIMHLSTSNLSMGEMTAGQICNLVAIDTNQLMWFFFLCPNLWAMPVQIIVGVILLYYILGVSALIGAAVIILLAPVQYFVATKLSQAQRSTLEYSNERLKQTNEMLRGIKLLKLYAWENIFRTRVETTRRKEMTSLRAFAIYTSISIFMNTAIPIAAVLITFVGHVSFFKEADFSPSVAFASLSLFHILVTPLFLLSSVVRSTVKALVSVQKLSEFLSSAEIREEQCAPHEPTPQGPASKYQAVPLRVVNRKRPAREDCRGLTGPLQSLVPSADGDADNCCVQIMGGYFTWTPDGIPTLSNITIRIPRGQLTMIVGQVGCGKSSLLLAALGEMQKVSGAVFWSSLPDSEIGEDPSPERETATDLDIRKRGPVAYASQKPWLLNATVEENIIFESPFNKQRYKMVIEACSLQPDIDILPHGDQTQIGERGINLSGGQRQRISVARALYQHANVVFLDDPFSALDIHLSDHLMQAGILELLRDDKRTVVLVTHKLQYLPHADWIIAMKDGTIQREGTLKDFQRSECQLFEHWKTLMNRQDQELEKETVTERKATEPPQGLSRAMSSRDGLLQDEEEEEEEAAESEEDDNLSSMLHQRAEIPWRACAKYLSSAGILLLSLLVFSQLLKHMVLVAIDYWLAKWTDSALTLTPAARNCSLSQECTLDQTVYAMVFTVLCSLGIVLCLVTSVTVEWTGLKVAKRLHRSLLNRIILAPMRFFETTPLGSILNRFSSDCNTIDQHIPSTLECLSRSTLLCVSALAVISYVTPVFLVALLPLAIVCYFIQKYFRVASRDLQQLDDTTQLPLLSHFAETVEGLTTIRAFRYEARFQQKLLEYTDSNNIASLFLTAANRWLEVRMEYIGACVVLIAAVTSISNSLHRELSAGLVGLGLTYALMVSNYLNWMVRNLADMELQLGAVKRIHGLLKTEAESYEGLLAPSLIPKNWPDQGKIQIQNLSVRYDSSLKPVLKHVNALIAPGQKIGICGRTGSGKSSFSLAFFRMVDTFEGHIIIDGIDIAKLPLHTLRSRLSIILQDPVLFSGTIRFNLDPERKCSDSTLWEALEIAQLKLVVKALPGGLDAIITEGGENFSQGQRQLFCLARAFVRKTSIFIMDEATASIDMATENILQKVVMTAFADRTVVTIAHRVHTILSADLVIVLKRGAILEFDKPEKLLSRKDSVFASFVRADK

Vd ([1]; SD, read-out: Vss) [L/kg]	Vd ([1]; SD, read-out: Vz) [L/kg]	AUC(0-inf) [1] [ng·h/mL]	AUC(0-t) [1] [ng·h/mL]	Cmax [1] [ng/mL]	Tmax [1] [min]	half-life [1] [h]	MRT last [1] [h]	MRT inf [1] [h]	SMILES	IC50 (SUR1 receptor) [nM]	Vd [1, 2] [L/kg]	Vd [1, 3] [L/kg]	AUC(0-inf) ([1]; Sprague-Dawley (SD)) [ng·h/mL]	AUC(0-t) ([1]; Sprague-Dawley (SD)) [ng·h/mL]	Cmax ([1]; Sprague-Dawley (SD)) [ng/mL]	Tmax ([1]; Sprague-Dawley (SD)) [min]	half-life ([1]; Sprague-Dawley (SD)) [h]	MRT last ([1]; Sprague-Dawley (SD)) [h]	MRT inf ([1]; Sprague-Dawley (SD)) [h]
–	–	–	–	–	–	–	–	–	COc1ccc(C#N)cc1C(=O)NCCc1ccc(S(=O)(=O)NC(=O)NC2CCCCC2)cc1 [Compound 7, 5-cyano-N-(4-(N-(cyclohexylcarbamoyl)sulfamoyl)phenethyl)-2-methoxybenzamide]	6	0.193 ± 0.0469	0.5 ± 0.16	28600 ± 7920	28500 ± 7930	42400 ± 8440	6	1.9 ± 0.2	1	1.1
–	–	–	–	–	–	–	–	–	O=C(NC1CCCCC1)NS(=O)(=O)c1ccc(CCNC(=O)c2cc(Cl)ccc2O)cc1 [Compound 1, 5-chloro-N-(4-(N-(cyclohexylcarbamoyl)sulfamoyl)phenethyl)-2-hydroxybenzamide]	–	0.219 ± 0.0263	1 ± 0.202	28700 ± 4700	28200	65000 ± 3630	6	3.9 ± 0.6	0.9 ± 0.3	1.2 ± 0.1
–	–	–	–	–	–	–	–	–	Cc1cnc(C(=O)NCCc2ccc(S(=O)(=O)NC(=O)NC3CCCCC3)cc2)cn1 [Glipizide, reference compound]	230	–	–	–	–	–	–	–	–	–
0.119 ± 0.0123	1.66 ± 1.73	13000 ± 1480	12900 ± 1460	39600 ± 4730	6	3.1 ± 3.4	0.3 ± 0.1	0.3 ± 0.1	COc1ccc(Cl)cc1C(=O)NCCc1ccc(S(=O)(=O)NC(=O)N[C@H]2CC[C@H](O)CC2)cc1 [Compound 4, 5-chloro-N-(4-(N-(((1r,4r)-4-hydroxycyclohexyl)carbamoyl)sulfamoyl)phenethyl)-2-methoxybenzamide]	–	–	–	–	–	–	–	–	–	–
–	–	–	–	–	–	–	–	–	COc1ccc(Cl)cc1C(=O)NCCc1ccc(S(=O)(=O)NC(=O)N[C@@H]2CCCC[C@H]2C#N)cc1 [Compound 6, 5-chloro-N-(4-(N-(((1R,2R)-2-cyanocyclohexyl)carbamoyl)sulfamoyl)phenethyl)-2-methoxybenzamide]	37	3.44 ± 4.53	14.6 ± 19.1	4980 ± 288	4660 ± 259	11800 ± 1060	6	5.4 ± 2.1	0.7 ± 0.1	3.6 ± 4.8
–	–	–	–	–	–	–	–	–	O=C(NC1CCCCC1)NS(=O)(=O)c1ccc(CCNC(=O)c2cc(Cl)ccc2OC(F)(F)F)cc1 [Compound 3, 5-chloro-N-(4-(N-(cyclohexylcarbamoyl)sulfamoyl)phenethyl)-2-(trifluoromethoxy)benzamide]	159	0.303 ± 0.0141	0.51 ± 0.0307	36400 ± 1170	35700 ± 1130	32800 ± 1530	6	2.6 ± 0.1	1.9 ± 0.1	2.2 ± 0.1
